From publication PMC8199613, “Discovery of Novel Small-Molecule Inhibitors of PD-1/PD-L1 Interaction via Structural Simplification Strategy” (Molecules, 2021)
Converted amounts (≈) assume the structure as drawn.

Key:
Water solubility by HPLC = format: physicochemical; settings: aqueous buffer, thermodynamic from solid, pH 7.4, PBS
Protocol: The aqueous solubility was estimated by HPLC. The HPLC analysis was performed on a Shimadzu LC-20AT machine with a BDS Hypersil C18 column, and the column temperature was at 28 °C. Mobile phase B (100% MeOH) and mobile phase A (100% water) were used in a gradient elution program (0 min: 30% (B), 2 min: 50% (B), 8 min: 95% (B), 14 min: 95% (B), 18 min: 70% (B), 20 min: 30% (B)) with a flow rate of 1.0 mL/min at […]. Methanol was used to configure an accurate compounds concentration to calculate the standard curve. The excess test compound was dissolved in PBS (KH2PO4 0.24 g + KCl 0.2 g + NaCl 8 g + Na2HPO4·12H2O 3.58 g + 1 L water) and then analyzed by HPLC.

PD-1/PD-L1 interaction = biological target: T1, PD-1/PD-L1 interaction (Homo sapiens, UniProt Q9NZQ7); test: HTRF-based PD-1/PD-L1 binding assay; settings: for inhibition at 0.1 µM: 0.1 μM compound, read-out: Inhibitory Rate (%) 0.1 μM; for inhibition at 0.1 µM / inhibition at 1 µM / IC50: HTRF; for inhibition at 1 µM: 1 μM compound, read-out: Inhibitory Rate (%) 1 μM; for IC50: two independent experiments; for LE: LE = −1.35 logIC50/Nheavy atoms (HTRF IC50)
T1 construct: purchased Cisbio 64ICP01PEG
T1 sequence (Q9NZQ7 19-238 limits assumed): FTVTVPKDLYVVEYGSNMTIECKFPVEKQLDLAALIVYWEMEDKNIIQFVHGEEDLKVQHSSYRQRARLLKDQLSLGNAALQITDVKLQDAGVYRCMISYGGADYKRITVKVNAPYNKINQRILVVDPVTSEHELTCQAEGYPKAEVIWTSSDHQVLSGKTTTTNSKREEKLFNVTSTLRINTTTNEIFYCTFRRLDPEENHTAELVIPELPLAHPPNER

MDA-MB-231 cells = test: MTT non-specific cytotoxicity assay, MDA-MB-231; format: cell-based; settings: for EC50: Homo sapiens, MDA-MB-231, 48 h, read-out: EC50 (μM)/MDA-MB-231 Toxicity; for direct killing of tumor cells: as shown in Table 3
Protocol: (§1) Considering that the toxicity of the compound might strongly interfere with the assay if the tested compounds could block PD-1/PD-L1 interaction to activate T cells for killing tumors, we examined their cell toxicities of MDA-MB-231 and Jurkat T cells in MTT assay. […] Furthermore, Jurkat T cells were used to simulate primary T cells for investigating the immune toxicity of the treated compounds with the regular concentrations within 48 h.
(§2) The MDA-MB-231 and Jurkat cell line was provided by the Chinese Academy of Sciences Cell Bank. The cytotoxicity of the test compounds was determined using the MTT assay. Briefly, MDA-MB-231 and Jurkat cells were incubated at 37 °C in a humidified 5% CO2 incubator for 24 h in 96-microwell plates. Then, 100 μL of culture medium containing the test compounds at different concentrations was added to each well and incubated at 37 °C for another 48 h. The MTT was added and incubated for another 4 h, and the optical density was detected with a microplate reader at 570 nm. The IC50 values were calculated according to the dose-dependent curves.

Jurkat T cells = test: MTT non-specific cytotoxicity assay, Jurkat; format: cell-based; settings: for EC50: Homo sapiens, Jurkat, MTT, 48 h, read-out: EC50 (μM)/Jurkat Toxicity; for immune toxicity in Jurkat T cells: regular concentrations within 48 h
Protocol: as §1, §2

hPD-L1 = hPD-L1 (Homo sapiens, UniProt Q9NZQ7); test: SPR binding affinity assay (Biacore T200)
Sequence of hPD-L1 (Q9NZQ7 19-238 limits assumed): as above
Protocol: To provide definitive evidence of direct binding to PD-L1 with small-molecule inhibitors, an SPR-based binding assay was performed using Biacore T200 instrument, which facilitates measurement of the kinetic parameters of ligand–protein complex formation. In this determination, hPD-L1/Fc was loaded on a Series S Sensor Chip Protein A. A9 and A15, with similar bioactivities in HTRF assay, were gradually subjected to this assay, and their kinetic parameters and the binding affinities were determined with the aid of Biacore evaluation software.
SPR analysis was carried out according to the method described by a previous article. The kinetic analysis for the interaction of small molecules with hPD-L1 was performed on a Biacore T200 (GE Healthcare Bio-sciences, Uppsala, Sweden) using Series S Sensor Chip Protein A (GE Healthcare Bio-sciences, Uppsala, Sweden, catalog # 29139131-AA). Briefly, Fc-hPD-L1 (Acro Biosystems, Cambridge, MA, USA, catalog #PD1-H5258) was diluted using 1 × PBS-P^+ buffer (phosphate buffer 1×, GE Healthcare Bio-sciences, catalog # 28-9950-84, enriched with 0.05% surfactant P20) containing 5% DMSO (Sigma-Aldrich, St. Louis, MO, America, catalog # D4540) and captured as the ligand (i.e., the target of small molecules) on protein A chip surface following Biacore T200 build-in protocol for kinetic/affinity analysis at a concentration of 10 μg/mL. The contact time and flow rates were set as 120 s and 10 μL/min for the ligand capture. Each experiment was performed using a pair of flow cells, one with ligand captured and the other kept as reference. A concentration gradient of analytes was freshly prepared in 1× PBS-P^+ buffer with 5% DMSO with at least five concentrations, and the concentration range was optimized according to different analytes. Analytes could flow through both ligand-captured flow cells and reference flow cells at the same rate (30 μL/min) and contact time (90 s). Solvent correction was included to avoid the impact of DMSO on surface plasmon effect during binding analysis. Extra washing of the flow system using 50% DMSO in 1×PBS-P^+ buffer was allowed to control carry over effects. For the regeneration of surface after each cycle (one-time ligand capture and binding of analyte at a single concentration) was carried out using 10 mM glycine pH 1.5 (GE Healthcare Bio-sciences, Uppsala, Sweden, catalog #BR-1003-54) at a flow rate of 30 μL/min for 30 s. Kinetic analysis was performed at 25 °C. Maximum binding response (Rmax) and equilibrium dissociation […] (KD) values were calculated using Biacore T200 Evaluation software following the 1:1 binding model.

Row | SMILES | IC50 (PD-1/PD-L1 interaction) [nM] | LE (PD-1/PD-L1 interaction) | melting point [°C] | also measured
1 | COc1nc(OCc2cccc(-c3ccccc3)c2C)ccc1CNCCNC(C)=O [BMS-202, reference compound] | – | – | – | solubility (Water solubility by HPLC): 90 µg/mL (≈ 215 µM)
2 | Cc1ccccc1-c1cccc(OCCCN2CCC(O)CC2)c1C.Cl [Compound A1, 1-(3-((2,2′-Dimethyl-[1,1′-biphenyl]-3-yl)oxy)propyl)piperidin-4-ol hydrochloride] | 114 | 0.38 | – | inhibition at 0.1 µM (PD-1/PD-L1 interaction): 56%; inhibition at 1 µM (PD-1/PD-L1 interaction): 90%
3 | Cc1c(CN2CCC(N3CCC(O)CC3)CC2)cccc1-c1ccccc1F [Compound A2, 1′-((2′-Fluoro-2-methyl-[1,1′-biphenyl]-3-yl)methyl)-[1,4′-bipiperidin]-4-ol] | – | – | 110 to 113 | inhibition at 0.1 µM (PD-1/PD-L1 interaction): 8.5%; inhibition at 1 µM (PD-1/PD-L1 interaction): 6.7%
4 | COc1cc(-c2cccc(-c3ccccc3F)c2C)ccc1CN1CCC(O)CC1 [Compound A3, 1-((2″-Fluoro-3-methoxy-2′-methyl-[1,1′:3′,1″-terphenyl]-4-yl)methyl)piperidin-4-ol] | 18.4 | 0.35 | 61.5 to 63.5 | inhibition at 0.1 µM (PD-1/PD-L1 interaction): 74.5%; inhibition at 1 µM (PD-1/PD-L1 interaction): 96.2%
5 | COc1nc(-c2cccc(-c3ccccc3F)c2C)ccc1CN1CCC(O)CC1 [Compound A4, 1-((6-(2′-Fluoro-2-methyl-[1,1′-biphenyl]-3-yl)-2-methoxypyridin-3-yl)methyl)piperidin-4-ol] | 21.9 | 0.36 | 84 to 86 | inhibition at 0.1 µM (PD-1/PD-L1 interaction): 71%; inhibition at 1 µM (PD-1/PD-L1 interaction): 98%
6 | COc1nc(-c2cccc(-c3ccccc3F)c2C)ccc1CNC1CCC(O)CC1 (stereo not drawn) [Compound A5, 4-(((6-(2′-Fluoro-2-methyl-[1,1′-biphenyl]-3-yl)-2-methoxypyridin-3-yl)methyl)amino)cyclohexan-1-ol] | 14.3 | 0.35 | 80 to 82 | –
7 | COc1nc(-c2cccc(-c3ccccc3F)c2C)ccc1CN1CCCC(C(N)=O)C1 (stereo not drawn) [Compound A6, 1-((6-(2′-Fluoro-2-methyl-[1,1′-biphenyl]-3-yl)-2-methoxypyridin-3-yl)methyl)piperidine-3-carboxamide] | 121 | 0.30 | 88 to 91 | –
8 | COc1nc(-c2cccc(-c3ccccc3F)c2C)ccc1CN1CCC(C(N)=O)CC1 [Compound A7, 1-((6-(2′-Fluoro-2-methyl-[1,1′-biphenyl]-3-yl)-2-methoxypyridin-3-yl)methyl)piperidine-4-carboxamide] | 10.7 | 0.34 | 194 to 196 | –
9 | COc1nc(-c2cccc(-c3ccccc3F)c2C)ccc1CN1CCC(C(=O)O)CC1 [Compound A8, 1-((6-(2′-Fluoro-2-methyl-[1,1′-biphenyl]-3-yl)-2-methoxypyridin-3-yl)methyl)piperidine-4-carboxylic acid] | 20.6 | 0.33 | 218 to 220 | –
10 | COc1nc(-c2cccc(-c3ccccc3C)c2C)ccc1CNCCC(N)=O [Compound A10] | 10.5 | 0.38 | 70 to 73 | decrease in activity as compared with A9 (PD-1/PD-L1 interaction; HTRF IC50 ratio): more than 10 fold
11 | COc1nc(-c2cccc(-c3ccccc3Cl)c2C)ccc1CNCCC(N)=O [Compound A11] | 6.18 | 0.39 | 49 to 51 | EC50 (MDA-MB-231 cells): 7.1 µM; direct killing of tumor cells (MDA-MB-231 cells): do not directly kill tumor cells; EC50 (Jurkat T cells): 5.5 µM; immune toxicity in Jurkat T cells (Jurkat T cells): lower cell toxicity
12 | COc1nc(-c2cccc(-c3ccccc3C(F)(F)F)c2C)ccc1CNCCC(N)=O [Compound A12] | 51.5 | 0.31 | 50.5 to 53.5 | decrease in activity as compared with A9 (PD-1/PD-L1 interaction; HTRF IC50 ratio): more than 10 fold
13 | COc1nc(-c2cccc(-c3ccccc3)c2C)ccc1CNCCC(N)=O [Compound A13] | 1.94 | 0.43 | 127 to 128 | increase in potency over compound A11 (PD-1/PD-L1 interaction; HTRF IC50 ratio): approximately 3 fold; EC50 (MDA-MB-231 cells): > 10 µM; direct killing of tumor cells (MDA-MB-231 cells): do not directly kill tumor cells; EC50 (Jurkat T cells): 7.73 µM
14 | COc1nc(-c2cccc(-c3cccc(F)c3)c2C)ccc1CNCCC(N)=O [Compound A14, 3-(((6-(3′-Fluoro-2-methyl-[1,1′-biphenyl]-3-yl)-2-methoxypyridin-3-yl)methyl)amino)propenamide] | 1.75 | 0.41 | 48 to 51 | EC50 (MDA-MB-231 cells): > 10 µM; direct killing of tumor cells (MDA-MB-231 cells): do not directly kill tumor cells; EC50 (Jurkat T cells): > 10 µM
15 | COc1nc(-c2cccc(-c3ccc(F)cc3)c2C)ccc1CNCCC(N)=O [Compound A15] | 0.97 | 0.43 | 120 to 122 | LE (hPD-L1; LE = -1.35log KD/Nheavy atoms (SPR KD)): 0.36; kon (hPD-L1; SPR association rate, read-out: Ka (M-1s-1) / Kon): 505000 M⁻¹ s⁻¹; koff (hPD-L1; SPR dissociation rate, read-out: Kd (s-1) / Koff): 0.0101 s⁻¹; Kd (hPD-L1; SPR, 25 °C, 1:1 binding model): 19.9 nM; EC50 (MDA-MB-231 cells): 10.2 µM; direct killing of tumor cells (MDA-MB-231 cells): do not directly kill tumor cells; EC50 (Jurkat T cells): 5.5 µM; immune toxicity in Jurkat T cells (Jurkat T cells): lower cell toxicity
16 | COc1nc(-c2cccc(-c3ccc(F)cc3F)c2C)ccc1CNCCC(N)=O [Compound A16] | 60 | 0.33 | 113 to 115 | –
17 | COc1nc(-c2cccc(-c3ccc(Cl)cc3F)c2C)ccc1CNCCC(N)=O [Compound A17] | 866 | 0.28 | 122 to 124 | –
18 | COc1nc(-c2cccc(-c3ccc(C(F)(F)F)cc3F)c2C)ccc1CNCCC(N)=O [Compound A18] | 791 | 0.25 | 137 to 139 | –
